Results: ChEMBL document CHEMBL3797166, “Identification of N-phenyl-2-(N-phenylphenylsulfonamido)acetamides as new RORγ inverse agonists: Virtual screening, structure-based optimization, and biological evaluation” (Eur J Med Chem, 2016)
Calls of active or inactive are those of the source. No cut-off for these calls is given here.

Key:
[1] = target: T1, Nuclear receptor ROR-gamma (Homo sapiens, UniProt P51449); assay: Inhibition of Gal4-RORgamma-LBD (180 to 507 residues) (unknown origin) expressed in HEK293T cells after 24 hrs by dual-luciferase reporter assay; type: cell-based, HEK-293T
T1 sequence (P51449 whole entry): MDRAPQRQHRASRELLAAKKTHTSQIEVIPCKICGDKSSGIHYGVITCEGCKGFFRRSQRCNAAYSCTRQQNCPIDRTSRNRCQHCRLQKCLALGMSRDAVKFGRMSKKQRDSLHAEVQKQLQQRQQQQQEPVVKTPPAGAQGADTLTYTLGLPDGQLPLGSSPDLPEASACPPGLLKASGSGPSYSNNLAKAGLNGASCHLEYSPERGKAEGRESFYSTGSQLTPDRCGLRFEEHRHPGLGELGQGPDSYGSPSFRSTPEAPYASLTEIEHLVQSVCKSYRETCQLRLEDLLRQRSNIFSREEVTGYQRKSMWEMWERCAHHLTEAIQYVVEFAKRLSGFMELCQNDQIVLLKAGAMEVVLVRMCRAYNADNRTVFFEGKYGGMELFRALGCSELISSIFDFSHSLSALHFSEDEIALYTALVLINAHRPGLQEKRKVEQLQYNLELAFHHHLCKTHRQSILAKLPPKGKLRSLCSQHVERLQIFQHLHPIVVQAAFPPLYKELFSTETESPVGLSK

[2] = target: T1, Nuclear receptor ROR-gamma; assay: Displacement of N-terminal biotinylated SRC1-4 coactivator peptide from N-terminal His6-fused human RORgamma-LBD (262 to 507 residues) expressed in Escherichia coli BL21 (DE3) by luminescence-based Alphascreen assay
[3] = target: T2, Nuclear receptor ROR-gamma (Homo sapiens) (UniProt P51449)
T2 sequence (whole entry): T1 sequence (P51449 whole entry)
Description: Binding affinity to N-terminal His6-fused human RORgamma-LBD (262 to 507 residues) expressed in Escherichia coli BL21 (DE3) assessed as inhibition of thermal stability activity at 200 uM incubated for 30 mins by RT-PCR analysis

| SMILES | IC50 ([1]; hek-293t) | IC50 ([2]; read-out: IC50) | IC50 ([1]; read-out: IC50) | ΔTm [3] | IC50 [2] | deltaTm [3] |
| --- | --- | --- | --- | --- | --- | --- |
| COC(=O)c1ccc(CNC(=O)CN(c2cccc(C(F)(F)F)c2)S(=O)(=O)c2ccc(C)cc2)cc1 | Not Active | 67.1 µM | – | – | – | – |
| COC(=O)c1ccc(NC(=O)CN(c2cccc(C(F)(F)F)c2)S(=O)(=O)c2ccc(C)cc2)cc1 | – | 11.8 µM | 3980 nM | 1.15 °C | – | – |
| Cc1ccc(S(=O)(=O)N(CC(=O)Nc2ccc(C#N)cc2)c2ccc(C#N)cc2)cc1 | – | 65.3 µM | 1310 nM | 1.71 °C | – | – |
| Cc1ccc(N(CC(=O)Nc2ccc(C#N)cc2)S(=O)(=O)c2ccc(F)cc2)cc1 | – | 10.3 µM | 1450 nM | 2.8 °C | – | – |
| Cc1ccc(S(=O)(=O)N(CC(=O)Nc2ccc(C(N)=O)cc2)c2cccc(C(F)(F)F)c2)cc1 | – | 35.1 µM | 420 nM | 1.9 °C | – | – |
| Cc1ccc(S(=O)(=O)N(CC(=O)NCc2ccc(F)cc2)c2cccc(C(F)(F)F)c2)cc1 | – | 13.1 µM | 7510 nM | 1.07 °C | – | – |
| Cc1ccc(S(=O)(=O)N(CC(=O)Nc2ccc(OC(F)(F)F)cc2)c2cccc(C(F)(F)F)c2)cc1 | Not Active | – | – | – | Not Active | – |
| Cc1ccc(CNC(=O)CN(c2cccc(C(F)(F)F)c2)S(=O)(=O)c2ccc(C)cc2)cc1 | – | – | 27200 nM | 1 °C | Not Active | – |
| Cc1ccc(S(=O)(=O)N(CC(=O)Nc2ccc(C#N)cc2)c2cccc(C(F)(F)F)c2)cc1 | – | 0.77 µM | 900 nM | 3.5 °C | – | – |
| COc1ccc(NC(=O)CN(c2cccc(C(F)(F)F)c2)S(=O)(=O)c2ccc(C)cc2)cc1OC | – | 12.8 µM | 2440 nM | 1.3 °C | – | – |
| Cc1ccc(S(=O)(=O)N(CC(=O)Nc2ccc(OCc3ccccc3)cc2)c2cccc(C(F)(F)F)c2)cc1 | Not Active | 93.9 µM | – | – | – | – |
| Cc1ccc(S(=O)(=O)N(CC(=O)Nc2ccc(C(O)(C(F)(F)F)C(F)(F)F)cc2)c2cccc(C(F)(F)F)c2)cc1 | – | 112 µM | – | 0.5 °C | – | – |
| COC(=O)c1cccc(NC(=O)CN(c2cccc(C(F)(F)F)c2)S(=O)(=O)c2ccc(C)cc2)c1 | – | – | 6060 nM | – | Not Active | – |
| Cc1ccc(S(=O)(=O)N(CC(=O)Nc2ccc(C#N)cc2)c2ccc(Cl)c(Cl)c2)cc1 | – | 0.22 µM | 630 nM | 3.5 °C | – | – |
| Cc1ccc(S(=O)(=O)N(CC(=O)Nc2ccc(C#N)cc2)c2ccc(C(F)(F)F)cc2)cc1 | – | 1.07 µM | 620 nM | 3.05 °C | – | – |
| Cc1ccc(N(CC(=O)Nc2ccc(C#N)cc2)S(=O)(=O)Cc2ccc(F)cc2)cc1 | – | 25.8 µM | 1780 nM | 2.5 °C | – | – |
| Cc1ccc(S(=O)(=O)N(CC(=O)Nc2ccc(C#N)cc2)c2ccc(F)cc2)cc1 | – | 36.1 µM | 910 nM | 2.15 °C | – | – |
| Cc1ccc(N(CC(=O)Nc2ccc(C#N)cc2)S(=O)(=O)Cc2ccccc2)cc1 | – | 36.8 µM | 630 nM | 1.71 °C | – | – |
| COC(=O)c1ccccc1NC(=O)CN(c1cccc(C(F)(F)F)c1)S(=O)(=O)c1ccc(C)cc1 | – | – | 1390 nM | 2.1 °C | – | – |

Now from value to compound:

| IC50 ([1]; hek-293t) | IC50 ([2]; read-out: IC50) | IC50 ([1]; read-out: IC50) | ΔTm [3] | IC50 [2] | deltaTm [3] | SMILES |
| --- | --- | --- | --- | --- | --- | --- |
| – | 3.99 µM | 3370 nM | 2.1 °C | – | – | Cc1ccc(S(=O)(=O)N(CC(=O)Nc2ccc(F)cc2)c2cccc(C(F)(F)F)c2)cc1 |
| – | – | 1030 nM | 0.1 °C | Not Active | – | Cc1ccc(S(=O)(=O)N(CC(=O)NC2CCCCC2)c2cccc(C(F)(F)F)c2)cc1 |
| – | 11.3 µM | 590 nM | 1.25 °C | – | – | CC(=O)c1ccc(NC(=O)CN(c2cccc(C(F)(F)F)c2)S(=O)(=O)c2ccc(C)cc2)cc1 |
| – | 93.3 µM | 152000 nM | – | – | inactive | Cc1ccc(S(=O)(=O)N(CC(=O)O)c2cccc(C(F)(F)F)c2)cc1 |
| – | 15.2 µM | 8280 nM | 2.2 °C | – | – | Cc1ccc(S(=O)(=O)N(CC(=O)NCc2ccncc2)c2cccc(C(F)(F)F)c2)cc1 |
| – | 13.6 µM | 8340 nM | 1.6 °C | – | – | Cc1ccc(S(=O)(=O)N(CC(=O)Nc2ccc(O)cc2)c2cccc(C(F)(F)F)c2)cc1 |
| – | 175 µM | 10400 nM | – | – | inactive | CC(=O)N1CCN(C(=O)CN(c2cccc(C(F)(F)F)c2)S(=O)(=O)c2ccc(C)cc2)CC1 |
| Not Active | – | – | – | – | – | Cc1ccc(S(=O)(=O)N(CC(=O)Nc2cccc(C(=O)O)c2)c2cccc(C(F)(F)F)c2)cc1 |
| – | 62.6 µM | 4540 nM | 1.8 °C | – | – | Cc1ccc(S(=O)(=O)N(CC(=O)Nc2ccc(F)cc2F)c2cccc(C(F)(F)F)c2)cc1 |
| Not Active | – | – | – | Not Active | – | CCCCCCNC(=O)CN(c1cccc(C(F)(F)F)c1)S(=O)(=O)c1ccc(C)cc1 |
| – | 14.7 µM | 22100 nM | 1 °C | – | – | Cc1ccc(S(=O)(=O)N(CC(=O)NCc2ccc(O)cc2)c2cccc(C(F)(F)F)c2)cc1 |
| – | 15.8 µM | 3650 nM | 0.8 °C | – | – | Cc1ccc(S(=O)(=O)N(CC(=O)Nc2nc(C)cs2)c2cccc(C(F)(F)F)c2)cc1 |
